Data set [1] can be described thus: in vivo. As to conditions: BALB/c, mouse.
The nature of data set [2]: in vivo. As to conditions: BALB/c, mouse. This is another data set of the same source.
Data set [3] can be described thus: in vivo. As to conditions: chimpanzee.
Data set [4] can be described thus: in vivo. As to conditions: cynomolgus monkey.
Data set [5] can be described thus: in vivo. As to conditions: chimpanzee. This is another data set of the same source.
A short description of data set [6]: in vivo. As to conditions: chimpanzee. This is another data set of the same source.
The nature of data set [7]: in vitro. As to conditions: human, Caco-2.
Data set [8] in a line: in vivo. As to conditions: BALB/c, mouse. This is another data set of the same source.
A short description of data set [9]: in vivo. As to conditions: cynomolgus monkey. The source holds these as a separate data set.
A short description of data set [10]: in vivo. As to conditions: cynomolgus monkey. The source holds these as a separate data set.
Data set [11] is described as follows: in vitro. As to conditions: human, liver microsomes. Background: Microsomes from liver hold many membrane-bound enzymes, among them those of drug oxidation.

In general, clearance refers to the volume of plasma or blood freed of the substance per unit of time. What is called half-life is the time in which the quantity being followed falls by half. For orientation: bioavailability means the share of a dose that reaches the circulation, judged against a reference dose that is usually intravenous. As a reminder, the Papp is the rate of passage across a membrane or cell layer, normalised by area and donor concentration. As a reminder, the CLint scaled is the capacity of the preparation to metabolise the compound, expressed as a volume cleared per time. `CC(=O)c1sc(NC(=O)N[C@@H]2CN(C(C)=O)CC[C@H]2CN2CCC[C@@H](Cc3ccc(F)cc3)C2)nc1C`: the clearance in the data set “in vivo [1]” is 41.7 mL/min/kg; in the data set “in vivo [4]”, 14.5 mL/min/kg; in the data set “in vivo [5]” it was 21.7 mL/min/kg. In addition, the half-life was 1.2 h in the data set “in vivo [2]”, 4.5 h in “in vivo [6]” and 5.5 h in “in vivo [9]”. Moreover, the bioavailability in “in vivo [3]” stood at 7%; in “in vivo [8]”, 25%; in the data set “in vivo [10]”, 18%. The molecule further returned a Papp in the data set “in vitro [7]” of 2.8 ×10⁻⁶ cm/s. The molecule further gave an intrinsic clearance (CLint scaled) in the data set “in vitro [11]” of 16 mL/min/kg.

For the origin of these results see ChEMBL document CHEMBL1140623, “CC chemokine receptor-3 (CCR3) antagonists: improving the selectivity of DPC168 by reducing central ring lipophilicity” (Bioorg Med Chem Lett, 2007).
